Assay results taken from ChEMBL document CHEMBL1201861, “Genomics of Drug Sensitity in Cancer screening data, Wellcome Trust Sanger Institute”.

Tests used:
Assay in all cases: cells
NCI-H2342 = format: functional, cell-based, Homo sapiens; conditions: Homo sapiens, NCI-H2342
Description: SANGER: Inhibition of human NCI-H2342 cell growth in a cell viability assay.

M14 = format: functional, cell-based, Homo sapiens; conditions: Homo sapiens, M14
Description: SANGER: Inhibition of human M14 cell growth in a cell viability assay.

A204 = format: functional, cell-based, Homo sapiens; conditions: Homo sapiens, A204
Description: SANGER: Inhibition of human A204 cell growth in a cell viability assay.

CWR22R = format: functional, cell-based, Homo sapiens; conditions: Homo sapiens, 22Rv1
Description: SANGER: Inhibition of human 22RV1 cell growth in a cell viability assay.

CAL-62 = format: functional, cell-based, Homo sapiens; conditions: Homo sapiens, CAL-62
Description: SANGER: Inhibition of human CAL-62 cell growth in a cell viability assay.

NCI-H1793 = format: functional, cell-based, Homo sapiens; conditions: Homo sapiens, NCI-H1793
Description: SANGER: Inhibition of human NCI-H1793 cell growth in a cell viability assay.

8505C = format: functional, cell-based, Homo sapiens; conditions: Homo sapiens, 8505C
Description: SANGER: Inhibition of human 8505C cell growth in a cell viability assay.

BHY = format: functional, cell-based, Homo sapiens; conditions: Homo sapiens, BHY
Description: SANGER: Inhibition of human BHY cell growth in a cell viability assay.

NCI-H28 = format: functional, cell-based, Homo sapiens; conditions: Homo sapiens, NCI-H28
Description: SANGER: Inhibition of human NCI-H28 cell growth in a cell viability assay.

NCI-H358 = format: functional, cell-based, Homo sapiens; conditions: Homo sapiens, NCI-H358
Description: SANGER: Inhibition of human NCI-H358 cell growth in a cell viability assay.

CAL-51 = format: functional, cell-based, Homo sapiens; conditions: Homo sapiens, CAL-51
Description: SANGER: Inhibition of human CAL-51 cell growth in a cell viability assay.

SW756 = format: functional, cell-based, Homo sapiens; conditions: Homo sapiens, SW756
Description: SANGER: Inhibition of human SW756 cell growth in a cell viability assay.

HT-29 = format: functional, cell-based, Homo sapiens; conditions: Homo sapiens, HT-29
Description: SANGER: Inhibition of human HT-29 cell growth in a cell viability assay.

SJRH30 = format: functional, cell-based, Homo sapiens; conditions: Homo sapiens, SJRH30
Description: SANGER: Inhibition of human SJRH30 cell growth in a cell viability assay.

COR-L105 = format: functional, cell-based, Homo sapiens; conditions: Homo sapiens, COR-L105
Description: SANGER: Inhibition of human COR-L105 cell growth in a cell viability assay.

HT-3 = format: functional, cell-based, Homo sapiens; conditions: Homo sapiens, HT-3
Description: SANGER: Inhibition of human HT-3 cell growth in a cell viability assay.

SW1417 = format: functional, cell-based, Homo sapiens; conditions: Homo sapiens, SW1417
Description: SANGER: Inhibition of human SW1417 cell growth in a cell viability assay.

BT-549 = format: functional, cell-based, Homo sapiens; conditions: Homo sapiens, BT-549
Description: SANGER: Inhibition of human BT-549 cell growth in a cell viability assay.

GP5d = format: functional, cell-based, Homo sapiens; conditions: Homo sapiens, GP5d
Description: SANGER: Inhibition of human GP5d cell growth in a cell viability assay.

SK-MEL-30 = format: functional, cell-based, Homo sapiens; conditions: Homo sapiens, SK-MEL-30
Description: SANGER: Inhibition of human SK-MEL-30 cell growth in a cell viability assay.

NCI-H661 = format: functional, cell-based, Homo sapiens; conditions: Homo sapiens, NCI-H661
Description: SANGER: Inhibition of human NCI-H661 cell growth in a cell viability assay.

CAL-33 = format: functional, cell-based, Homo sapiens; conditions: Homo sapiens, CAL-33
Description: SANGER: Inhibition of human CAL-33 cell growth in a cell viability assay.

SW1088 = format: functional, cell-based, Homo sapiens; conditions: Homo sapiens, SW1088
Description: SANGER: Inhibition of human SW1088 cell growth in a cell viability assay.

Ca9-22 = format: functional, cell-based, Homo sapiens; conditions: Homo sapiens, Ca9-22
Description: SANGER: Inhibition of human Ca9-22 cell growth in a cell viability assay.

NB7 = format: functional, cell-based, Homo sapiens; conditions: Homo sapiens, NB7
Description: SANGER: Inhibition of human NB7 cell growth in a cell viability assay.

EW-22 = format: functional, cell-based, Homo sapiens; conditions: Homo sapiens, EW-22
Description: SANGER: Inhibition of human EW-22 cell growth in a cell viability assay.

NCI-H1651 = format: functional, cell-based, Homo sapiens; conditions: Homo sapiens, NCI-H1651
Description: SANGER: Inhibition of human NCI-H1651 cell growth in a cell viability assay.

LCLC-103H cell line = format: functional, cell-based, Homo sapiens; conditions: Homo sapiens, LCLC-103H
Description: SANGER: Inhibition of human LCLC-103H cell growth in a cell viability assay.

639-V = format: functional, cell-based, Homo sapiens; conditions: Homo sapiens, 639-V
Description: SANGER: Inhibition of human 639-V cell growth in a cell viability assay.

SW13 = format: functional, cell-based, Homo sapiens; conditions: Homo sapiens, SW13
Description: SANGER: Inhibition of human SW13 cell growth in a cell viability assay.

SNU-387 = format: functional, cell-based, Homo sapiens; conditions: Homo sapiens, SNU-387
Description: SANGER: Inhibition of human SNU-387 cell growth in a cell viability assay.

PC-3 = format: functional, cell-based, Homo sapiens; conditions: Homo sapiens, PC-3
Description: SANGER: Inhibition of human PC-3 cell growth in a cell viability assay.

UACC-893 = format: functional, cell-based, Homo sapiens; conditions: Homo sapiens, UACC-893
Description: SANGER: Inhibition of human UACC-893 cell growth in a cell viability assay.

U2OS = format: functional, cell-based, Homo sapiens, U-2-OS; conditions: Homo sapiens, U2OS
Description: SANGER: Inhibition of human U-2-OS cell growth in a cell viability assay.

## CC1(C)CNc2cc(NC(=O)c3cccnc3NCc3ccncc3)ccc21 [MOTESANIB]
NCI-H2342
  IC50: > 2000 nM
M14
  IC50: > 2000 nM
A204
  IC50: 519 nM
CWR22R
  IC50: > 2000 nM
CAL-62
  IC50: > 2000 nM
NCI-H1793
  IC50: > 2000 nM
8505C
  IC50: > 2000 nM
BHY
  IC50: > 2000 nM
NCI-H28
  IC50: > 2000 nM
NCI-H358
  IC50: > 2000 nM
CAL-51
  IC50: > 2000 nM
SW756
  IC50: > 2000 nM
HT-29
  IC50: > 2000 nM
SJRH30
  IC50: > 2000 nM
COR-L105
  IC50: > 2000 nM
HT-3
  IC50: > 2000 nM
SW1417
  IC50: > 2000 nM
BT-549
  IC50: > 2000 nM
GP5d
  IC50: > 2000 nM
SK-MEL-30
  IC50: > 2000 nM
NCI-H661
  IC50: > 2000 nM
CAL-33
  IC50: > 2000 nM
SW1088
  IC50: > 2000 nM
Ca9-22
  IC50: > 2000 nM
NB7
  IC50: > 2000 nM
EW-22
  IC50: > 2000 nM
NCI-H1651
  IC50: > 2000 nM
LCLC-103H cell line
  IC50: > 2000 nM
639-V
  IC50: > 2000 nM
SW13
  IC50: > 2000 nM
SNU-387
  IC50: > 2000 nM
PC-3
  IC50: > 2000 nM
UACC-893
  IC50: > 2000 nM
U2OS
  IC50: > 2000 nM

## Cc1cn(-c2cc(NC(=O)c3ccc(C)c(Nc4nccc(-c5cccnc5)n4)c3)cc(C(F)(F)F)c2)cn1 [NILOTINIB]
NCI-H2342
  IC50: > 2000 nM
M14
  IC50: > 2000 nM
A204
  IC50: 1570 nM
CWR22R
  IC50: > 2000 nM
CAL-62
  IC50: > 2000 nM
NCI-H1793
  IC50: > 2000 nM
8505C
  IC50: > 2000 nM
BHY
  IC50: > 2000 nM
NCI-H28
  IC50: > 2000 nM
NCI-H358
  IC50: > 2000 nM
CAL-51
  IC50: > 2000 nM
SW756
  IC50: > 2000 nM
HT-29
  IC50: > 2000 nM
SJRH30
  IC50: > 2000 nM
COR-L105
  IC50: > 2000 nM
HT-3
  IC50: > 2000 nM
SW1417
  IC50: > 2000 nM
BT-549
  IC50: > 2000 nM
GP5d
  IC50: > 2000 nM
SK-MEL-30
  IC50: > 2000 nM
NCI-H661
  IC50: > 2000 nM
CAL-33
  IC50: > 2000 nM
SW1088
  IC50: > 2000 nM
Ca9-22
  IC50: > 2000 nM
NB7
  IC50: 134 nM
EW-22
  IC50: > 2000 nM
NCI-H1651
  IC50: > 2000 nM
LCLC-103H cell line
  IC50: > 2000 nM
639-V
  IC50: > 2000 nM
SW13
  IC50: > 2000 nM
SNU-387
  IC50: > 2000 nM
PC-3
  IC50: > 2000 nM
UACC-893
  IC50: > 2000 nM
U2OS
  IC50: > 2000 nM

## CCN(CC)CCCCNc1ncc2cc(-c3cc(OC)cc(OC)c3)c(NC(=O)NC(C)(C)C)nc2n1 [PD-173074]
NCI-H2342
  IC50: > 2000 nM
M14
  IC50: > 2000 nM
A204
  IC50: > 2000 nM
CWR22R
  IC50: > 2000 nM
CAL-62
  IC50: > 2000 nM
NCI-H1793
  IC50: > 2000 nM
8505C
  IC50: > 2000 nM
BHY
  IC50: > 2000 nM
NCI-H28
  IC50: > 2000 nM
NCI-H358
  IC50: > 2000 nM
CAL-51
  IC50: > 2000 nM
SW756
  IC50: > 2000 nM
HT-29
  IC50: > 2000 nM
SJRH30
  IC50: > 2000 nM
COR-L105
  IC50: > 2000 nM
HT-3
  IC50: > 2000 nM
SW1417
  IC50: > 2000 nM
BT-549
  IC50: > 2000 nM
GP5d
  IC50: > 2000 nM
SK-MEL-30
  IC50: > 2000 nM
NCI-H661
  IC50: > 2000 nM
CAL-33
  IC50: > 2000 nM
SW1088
  IC50: > 2000 nM
Ca9-22
  IC50: > 2000 nM
NB7
  IC50: > 2000 nM
EW-22
  IC50: > 2000 nM
NCI-H1651
  IC50: > 2000 nM
LCLC-103H cell line
  IC50: > 2000 nM
639-V
  IC50: > 2000 nM
SW13
  IC50: > 2000 nM
SNU-387
  IC50: > 2000 nM
PC-3
  IC50: > 2000 nM
UACC-893
  IC50: > 2000 nM
U2OS
  IC50: > 2000 nM

## CO[C@H]1C[C@@H]2CC[C@@H](C)[C@@](O)(O2)C(=O)C(=O)N2CCCC[C@H]2C(=O)O[C@H]([C@H](C)C[C@@H]2CC[C@@H](OC(=O)C(C)(CO)CO)[C@H](OC)C2)CC(=O)[C@H](C)/C=C(\C)[C@@H](O)[C@@H](OC)C(=O)[C@H](C)C[C@H](C)/C=C/C=C/C=C/1C [TEMSIROLIMUS]
NCI-H2342
  IC50: > 200 nM
M14
  IC50: > 200 nM
A204
  IC50: 38.9 nM
CWR22R
  IC50: > 200 nM
CAL-62
  IC50: 117 nM
NCI-H1793
  IC50: 45.7 nM
8505C
  IC50: > 200 nM
BHY
  IC50: > 200 nM
NCI-H28
  IC50: > 200 nM
NCI-H358
  IC50: 131 nM
CAL-51
  IC50: > 200 nM
SW756
  IC50: > 200 nM
HT-29
  IC50: > 200 nM
SJRH30
  IC50: > 200 nM
COR-L105
  IC50: 54.5 nM
HT-3
  IC50: > 200 nM
SW1417
  IC50: > 200 nM
BT-549
  IC50: > 200 nM
GP5d
  IC50: > 200 nM
SK-MEL-30
  IC50: > 200 nM
NCI-H661
  IC50: 117 nM
CAL-33
  IC50: > 200 nM
SW1088
  IC50: 31.8 nM
Ca9-22
  IC50: 96.6 nM
NB7
  IC50: 17.9 nM
EW-22
  IC50: > 200 nM
NCI-H1651
  IC50: > 200 nM
LCLC-103H cell line
  IC50: > 200 nM
639-V
  IC50: > 200 nM
SW13
  IC50: 186 nM
SNU-387
  IC50: 175 nM
PC-3
  IC50: 9.14 nM
UACC-893
  IC50: > 200 nM
U2OS
  IC50: 70.2 nM

## CS(=O)(=O)c1ccc(C(=O)Nc2ccc(Cl)c(-c3ccccn3)c2)c(Cl)c1 [VISMODEGIB]
NCI-H2342
  IC50: > 10000 nM
M14
  IC50: > 10000 nM
A204
  IC50: > 10000 nM
CWR22R
  IC50: > 10000 nM
CAL-62
  IC50: > 10000 nM
NCI-H1793
  IC50: > 10000 nM
8505C
  IC50: > 10000 nM
BHY
  IC50: > 10000 nM
NCI-H28
  IC50: > 10000 nM
NCI-H358
  IC50: > 10000 nM
CAL-51
  IC50: > 10000 nM
SW756
  IC50: > 10000 nM
HT-29
  IC50: > 10000 nM
SJRH30
  IC50: > 10000 nM
COR-L105
  IC50: > 10000 nM
HT-3
  IC50: > 10000 nM
SW1417
  IC50: > 10000 nM
BT-549
  IC50: > 10000 nM
GP5d
  IC50: > 10000 nM
SK-MEL-30
  IC50: > 10000 nM
NCI-H661
  IC50: > 10000 nM
CAL-33
  IC50: > 10000 nM
SW1088
  IC50: > 10000 nM
Ca9-22
  IC50: > 10000 nM
NB7
  IC50: > 10000 nM
EW-22
  IC50: > 10000 nM
NCI-H1651
  IC50: > 10000 nM
LCLC-103H cell line
  IC50: > 10000 nM
639-V
  IC50: > 10000 nM
SW13
  IC50: > 10000 nM
SNU-387
  IC50: > 10000 nM
PC-3
  IC50: > 10000 nM
UACC-893
  IC50: > 10000 nM
U2OS
  IC50: > 10000 nM
